Among the data in patent publication US20230295157A1, “3-(1H-IMIDAZOL-2-YL)-2,3,8,8A-TETRAHYDROINDOLIZIN-5(1H)-ONE DERIVATIVES USEFUL AS FACTOR XIA INHIBITORS” (JANSSEN PHARMACEUTICA NV, priority 2020, published 2023) are IC50 values, retold here.

For one assay, the target named is Factor XIa (Homo sapiens (Human), UniProt P03951). As to the kind of experiment: Factor XIa inhibition assay (FLINT) utilizing a fluorophore-quencher pair peptide substrate. Format: biochemical. Conditions: 30 min preincubation, kinetic reads over 30 min, 5Fam-KLTRAETV-K5Tamra substrate 15 μM; read-out: FXIa Kin Inh IC50. An outline of the steps: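 FXIa ([…]) preincubated 30 min with compound (11-point 3-fold dilution, top 100 nM, 2% DMSO), then 15 μM quenched FXI Arg146-based peptide added; Tris pH 7.5, CaCl2, BSA, CHAPS. Fluorescence 485/520 nm read kinetically every 5 min over 30 min at RT; IC50 by 4-parameter fit.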

The next assay concerns the target human plasma kallikrein (Homo sapiens (Human), UniProt P03952). Description: Kallikrein inhibition assay (FLINT) utilizing a quenched AMC peptide substrate. Conditions: 30 min preincubation, read-out: Kallikrein Kin Inh IC50. The format is biochemical. An outline of the steps:
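Enzyme (2 nM final) pre-incubated 30 min at room temperature with compound (11-point, 3-fold, top 1 μM, 2% DMSO), then 50 μM Z-Gly-Pro-Arg-AMC added in Tris pH 7.5 buffer. Kinetic fluorescence 340/440 nm every 5 min over 30 min; IC50 from 4-parameter logistic fit.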

Where [1] appears, read: kinetic reads over 30 min, Z-Gly-Pro-Arg-AMC substrate 50 μM.

SMILES strings stand for the structures. Read-outs that look alike come from different tables or passages of the source.

Sequence of Factor XIa (P03951 388-625): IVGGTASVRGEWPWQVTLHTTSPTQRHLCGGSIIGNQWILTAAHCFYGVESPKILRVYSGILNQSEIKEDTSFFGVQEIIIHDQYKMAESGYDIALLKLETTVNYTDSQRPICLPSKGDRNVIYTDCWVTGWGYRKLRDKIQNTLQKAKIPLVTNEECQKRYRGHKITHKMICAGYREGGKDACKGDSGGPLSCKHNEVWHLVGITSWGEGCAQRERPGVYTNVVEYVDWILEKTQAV
Sequence of Factor XIa (P03951 19-387 partner): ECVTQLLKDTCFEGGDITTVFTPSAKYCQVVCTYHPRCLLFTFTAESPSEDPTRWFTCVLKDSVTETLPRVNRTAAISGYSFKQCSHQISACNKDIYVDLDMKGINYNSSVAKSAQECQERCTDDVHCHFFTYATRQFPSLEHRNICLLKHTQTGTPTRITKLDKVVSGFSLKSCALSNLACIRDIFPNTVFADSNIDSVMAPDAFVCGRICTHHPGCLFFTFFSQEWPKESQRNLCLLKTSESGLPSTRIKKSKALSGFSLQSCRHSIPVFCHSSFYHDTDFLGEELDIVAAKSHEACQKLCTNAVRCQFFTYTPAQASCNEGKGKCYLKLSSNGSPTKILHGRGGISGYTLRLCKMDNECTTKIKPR
Sequence of human plasma kallikrein (P03952 391-638): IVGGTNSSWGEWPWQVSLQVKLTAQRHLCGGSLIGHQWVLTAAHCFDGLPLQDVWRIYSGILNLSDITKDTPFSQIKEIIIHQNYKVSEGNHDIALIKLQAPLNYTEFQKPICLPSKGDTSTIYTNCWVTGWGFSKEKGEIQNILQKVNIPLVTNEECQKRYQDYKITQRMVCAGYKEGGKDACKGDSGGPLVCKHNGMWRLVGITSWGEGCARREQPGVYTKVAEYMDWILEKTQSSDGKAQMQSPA
Sequence of human plasma kallikrein (P03952 20-390 partner): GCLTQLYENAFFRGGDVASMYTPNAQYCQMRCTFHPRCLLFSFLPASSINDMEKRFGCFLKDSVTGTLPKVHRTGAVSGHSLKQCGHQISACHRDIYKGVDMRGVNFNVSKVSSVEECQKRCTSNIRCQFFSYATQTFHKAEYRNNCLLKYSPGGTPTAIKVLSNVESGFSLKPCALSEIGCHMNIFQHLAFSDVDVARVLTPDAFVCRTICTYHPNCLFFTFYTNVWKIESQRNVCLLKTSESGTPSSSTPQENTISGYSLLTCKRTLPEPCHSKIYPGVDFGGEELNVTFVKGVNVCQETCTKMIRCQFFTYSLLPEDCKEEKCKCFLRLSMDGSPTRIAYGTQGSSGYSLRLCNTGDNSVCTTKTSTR

What is called IC50 is the concentration at which inhibition is half-maximal. Consider `CNc1ccc(-c2cnc([C@@H]3CC[C@H]4CC(c5c(-n6cnnn6)ccc(Cl)c5F)=CC(=O)N43)[nH]2)c(F)n1` [Example 291, (3S,8aS)-7-(3-Chloro-2-fluoro-6-(1H-tetrazol-1-yl)phenyl)-3-(5-(2-fluoro-6-(methylamino)pyridin-3-yl)-1H-imidazol-2-yl)-2,3,8,8a-tetrahydroindolizin-5(1H)-one], for which the IC50 on Factor XIa is 0.5 nM; at human plasma kallikrein (setting [1]), 0.0074 µM.

Take `O=C1C=C(c2c(-n3cnnn3)ccc(Cl)c2F)C[C@@H]2CC[C@@H](c3ncc(-c4ccc5[nH]c(=O)[nH]c5c4)[nH]3)N12` [Example 292, 5-(2-((3S,8aS)-7-(3-Chloro-2-fluoro-6-(1H-tetrazol-1-yl)phenyl)-5-oxo-1,2,3,5,8,8a-hexahydroindolizin-3-yl)-1H-imidazol-5-yl)-1,3-dihydro-2H-benzo[d]imidazol-2-one]: the IC50 on Factor XIa is 0.3 nM; at human plasma kallikrein (setting [1]), 0.0007 µM.

Take `CS(=O)(=O)Nc1ccccc1-c1c[nH]c([C@@H]2CCC3CC(c4c(-n5cnnn5)ccc(Cl)c4F)=CC(=O)N32)n1` (stereo partly drawn) [Example 293, N-(2-(2-((3S)-7-(3-Chloro-2-fluoro-6-(1H-tetrazol-1-yl)phenyl)-5-oxo-1,2,3,5,8,8a-hexahydroindolizin-3-yl)-1H-imidazol-4-yl)phenyl)methanesulfonamide]: the IC50 on Factor XIa is 79.7 nM; on human plasma kallikrein (μM, kinetic reads), 1.2 µM.

On to `CC(C)Oc1ccccc1-c1cnc([C@@H]2CCC3CC(c4c(-n5cnnn5)ccc(Cl)c4F)=CC(=O)N32)[nH]1` (some centres unmarked) [Example 294], for which the IC50 is 77 nM on Factor XIa and 0.0462 µM at human plasma kallikrein (setting [1]).

For `O=C1Nc2ccc(-c3cnc([C@@H]4CCC5CC(c6c(-n7cnnn7)ccc(Cl)c6F)=CC(=O)N54)[nH]3)cc2CO1` (stereo partly drawn) [Example 297, 6-(2-((3S)-7-(3-Chloro-2-fluoro-6-(1H-tetrazol-1-yl)phenyl)-5-oxo-1,2,3,5,8,8a-hexahydroindolizin-3-yl)-1H-imidazol-5-yl)-1H-benzo[d][1,3]oxazin-2(4H)-one], the IC50 on Factor XIa turned out to be 0.3 nM; on human plasma kallikrein (setting [1]), 0.001 µM.

For `O=C(Nc1ccccc1-c1cnc([C@@H]2CC[C@@H]3CC(c4c(-n5cnnn5)ccc(Cl)c4F)=CC(=O)N32)[nH]1)C1CC1` [Example 307, N-(2-(2-((3S,8aR)-7-(3-Chloro-2-fluoro-6-(1H-tetrazol-1-yl)phenyl)-5-oxo-1,2,3,5,8,8a-hexahydroindolizin-3-yl)-1H-imidazol-4-yl)phenyl)cyclopropanecarboxamide], the IC50 on Factor XIa was 0.3 nM; on human plasma kallikrein (setting [1]), 0.0007 µM.

Regarding `O=C1C=C(c2c(-n3cnnn3)ccc(Cl)c2F)CC2CC[C@@H](c3ncc(-c4ccc5[nH]c(=O)oc5c4)[nH]3)N12` (stereo partly drawn) [Example 309, 6-(2-((3S)-7-(3-Chloro-2-fluoro-6-(1H-tetrazol-1-yl)phenyl)-5-oxo-1,2,3,5,8,8a-hexahydroindolizin-3-yl)-1H-imidazol-4-yl)benzo[d]oxazol-2(3H)-one], the IC50 on Factor XIa was 1.9 nM; at human plasma kallikrein (setting [1]), 0.0013 µM.

Consider `O=C1CCc2cc(-c3cnc([C@@H]4CCC5CC(c6c(-n7cnnn7)ccc(Cl)c6F)=CC(=O)N54)[nH]3)ccc2N1` (stereo partly drawn) [Example 311, 6-(2-((3S)-7-(3-Chloro-2-fluoro-6-(1H-tetrazol-1-yl)phenyl)-5-oxo-1,2,3,5,8,8a-hexahydroindolizin-3-yl)-1H-imidazol-5-yl)-3,4-dihydroquinolin-2(1H)-one], for which the results for the half-inhibitory concentration (IC50) on Factor XIa and on human plasma kallikrein (setting [1]) were 0.3 nM and 0.0007 µM, respectively.

Turning to `O=C1C=C(c2c(-n3cnnn3)ccc(Cl)c2F)CC2CC[C@@H](c3ncc(-c4ccc5[nH]c(=O)[nH]c5c4)[nH]3)N12` (stereo partly drawn) [Example 312, 5-(2-((3S)-7-(3-Chloro-2-fluoro-6-(1H-tetrazol-1-yl)phenyl)-5-oxo-1,2,3,5,8,8a-hexahydroindolizin-3-yl)-1H-imidazol-5-yl)-1H-benzo[d]imidazol-2(3H)-one], the IC50 was 0.3 nM on Factor XIa and 0.0006 µM on human plasma kallikrein (setting [1]).

As to `Nc1n[nH]c2cc(-c3cnc([C@@H]4CCC5CC(c6c(-n7cnnn7)ccc(Cl)c6F)=CC(=O)N54)[nH]3)ccc12` (stereo partly drawn) [Example 313, (3S)-3-(5-(3-Amino-1H-indazol-6-yl)-1H-imidazol-2-yl)-7-(3-chloro-2-fluoro-6-(1H-tetrazol-1-yl)phenyl)-2,3,8,8a-tetrahydroindolizin-5(1H)-one], the IC50 stood at 0.2 nM on Factor XIa and 0.0006 µM at human plasma kallikrein (setting [1]).

For `O=C1Cc2cc(-c3cnc([C@@H]4CCC5CC(c6c(-n7cnnn7)ccc(Cl)c6F)=CC(=O)N54)[nH]3)ccc2N1` (stereo partly drawn) [Example 314, 5-(2-((3S)-7-(3-Chloro-2-fluoro-6-(1H-tetrazol-1-yl)phenyl)-5-oxo-1,2,3,5,8,8a-hexahydroindolizin-3-yl)-1H-imidazol-5-yl)indolin-2-one], the IC50 on Factor XIa stood at 1 nM; on human plasma kallikrein (setting [1]), 0.0032 µM.

`CN(C)c1ccc(-c2cnc([C@@H]3CCC4CC(c5c(-n6cnnn6)ccc(Cl)c5F)=CC(=O)N43)[nH]2)c(F)n1` (stereo partly drawn) [Example 315, (3S)-7-(3-Chloro-2-fluoro-6-(1H-tetrazol-1-yl)phenyl)-3-(5-(6-(dimethylamino)-2-fluoropyridin-3-yl)-1H-imidazol-2-yl)-2,3,8,8a-tetrahydroindolizin-5(1H)-one]: the IC50 was found to be 31.1 nM on Factor XIa and 0.0348 µM at human plasma kallikrein (setting [1]).

In the case of `COC(=O)Nc1ccc(-c2cnc([C@@H]3CC[C@@H]4CC(c5c(-n6cnnn6)ccc(Cl)c5F)=CC(=O)N43)[nH]2)nc1` [Example 316, Methyl (6-(2-((3S,8aR)-7-(3-chloro-2-fluoro-6-(1H-tetrazol-1-yl)phenyl)-5-oxo-1,2,3,5,8,8a-hexahydroindolizin-3-yl)-1H-imidazol-5-yl)pyridin-3-yl)carbamate], the IC50 at Factor XIa came to 5 nM; at human plasma kallikrein (setting [1]), 0.0255 µM.

As to `COc1ccccc1-c1c[nH]c([C@@H]2CCC3CC(c4c(-n5cnnn5)ccc(Cl)c4F)=CC(=O)N32)n1` (stereo partly drawn) [Example 317, (3S)-7-(3-Chloro-2-fluoro-6-(1H-tetrazol-1-yl)phenyl)-3-(4-(2-methoxyphenyl)-1H-imidazol-2-yl)-2,3,8,8a-tetrahydroindolizin-5(1H)-one], the IC50 at Factor XIa was 5.3 nM; at human plasma kallikrein (setting [1]), 0.0129 µM.

Take `O=C1OCCN1c1ccc(-c2cnc([C@@H]3CCC4CC(c5c(-n6cnnn6)ccc(Cl)c5F)=CC(=O)N43)[nH]2)cc1` (stereo partly drawn) [Example 318, 3-(4(2-((3S)-7-(3-Chloro-2-fluoro-6-(1H-tetrazol-1-yl)phenyl)-5-oxo-1,2,3,5,8,8a-hexahydroindolizin-3-yl)-1H-imidazol-5-yl)phenyl)oxazolidin-2-one]: the IC50 at Factor XIa turned out to be 54.1 nM; on human plasma kallikrein (setting [1]), 0.0715 µM.

For the compound `COC(=O)Nc1ccc(-c2cnc([C@@H]3CCC4CC(c5c(OCC(F)(F)F)ccc(Cl)c5F)=CC(=O)N43)[nH]2)cc1` (stereo partly drawn) [Example 324, Methyl (4-(2-((3S)-7-(3-Chloro-2-fluoro-6-(2,2,2-trifluoroethoxy)phenyl)-5-oxo-1,2,3,5,8,8a-hexahydroindolizin-3-yl)-1H-imidazol-5-yl)phenyl)carbamate], the values for the IC50 on Factor XIa and at human plasma kallikrein (setting [1]) were 14.3 nM and 0.095 µM, respectively.

For `COC(=O)Nc1ccc(-c2cnc([C@@H]3CCC4CC(c5c(-n6cnnn6)ccc(Cl)c5F)=CC(=O)N43)[nH]2)cn1` (stereo partly drawn) [Example 325, Methyl (5-(2-((3S)-7-(3-Chloro-2-fluoro-6-(1H-tetrazol-1-yl)phenyl)-5-oxo-1,2,3,5,8,8a-hexahydroindolizin-3-yl)-1H-imidazol-5-yl)pyridin-2-yl)carbamate], the IC50 stood at 1.2 nM on Factor XIa and 0.007 µM at human plasma kallikrein (setting [1]).

Turning to `COC(=O)Nc1ccc(-c2cnc([C@@H]3CCC4CC(c5c(-n6cnnn6)ccc(Cl)c5F)=CC(=O)N43)[nH]2)nc1` (stereo partly drawn) [Example 326, Methyl (6-(2-((3S)-7-(3-Chloro-2-fluoro-6-(1H-tetrazol-1-yl)phenyl)-5-oxo-1,2,3,5,8,8a-hexahydroindolizin-3-yl)-1H-imidazol-5-yl)pyridin-3-yl)carbamate], the values for the concentration for half-maximal inhibition (IC50) on Factor XIa and at human plasma kallikrein (setting [1]) were 1 nM and 0.0124 µM, respectively.

Turning to `CO[C@@H]1C[C@@H](c2nc(-c3ccc(N)nc3F)c[nH]2)N2C(=O)C=C(c3c(-n4cnnn4)ccc(Cl)c3F)CC12` (stereo partly drawn) [Example 327, (1R,3S)-3-(4-(6-Amino-2-fluoropyridin-3-yl)-1H-imidazol-2-yl)-7-(3-chloro-2-fluoro-6-(1H-tetrazol-1-yl)phenyl)-1-methoxy-2,3,8,8a-tetrahydroindolizin-5(1H)-one], the IC50 at Factor XIa turned out to be 0.6 nM; on human plasma kallikrein (setting [1]), 0.0095 µM.

With `CC1CC2CC(c3c(-n4cnnn4)ccc(Cl)c3F)=CC(=O)N2C1c1ncc(-c2ccc(N)nc2F)[nH]1` (centres unmarked) [Example 328, 3-(5-(6-Amino-2-fluoropyridin-3-yl)-1H-imidazol-2-yl)-7-(3-chloro-2-fluoro-6-(1H-tetrazol-1-yl)phenyl)-2-methyl-2,3,8,8a-tetrahydroindolizin-5(1H)-one], the IC50 at Factor XIa was 3.4 nM; at human plasma kallikrein (setting [1]) it was 0.0459 µM.

For the compound `CC(C)C(=O)Nc1ccccc1-c1c[nH]c([C@@H]2CCC3CC(c4c(-n5cnnn5)ccc(Cl)c4F)=CC(=O)N32)n1` (stereo partly drawn) [Example 329, N-(2-(2-((3S)-7-(3-Chloro-2-fluoro-6-(1H-tetrazol-1-yl)phenyl)-5-oxo-1,2,3,5,8,8a-hexahydroindolizin-3-yl)-1H-imidazol-4-yl)phenyl)isobutyramide], the IC50 on Factor XIa was 0.5 nM; on human plasma kallikrein (setting [1]) it was 0.0013 µM.

As to `O=C(Nc1ccccc1-c1c[nH]c([C@@H]2CCC3CC(c4c(-n5cnnn5)ccc(Cl)c4F)=CC(=O)N32)n1)C1CCCC1` (some centres unmarked) [Example 330], the half-maximal inhibitory concentration (IC50) on Factor XIa is 0.9 nM; at human plasma kallikrein (setting [1]) it was 0.0024 µM.
